Results on eleven compounds are retold here after patent publication US11370794B2, “Toll-like receptor antagonist compounds and methods of use” (Dynavax Technologies Corporation, priority 2016, dated 2022).

As a reminder, the IC50 is the concentration that gives 50% inhibition.

Assay [1] has as its target T1, human TLR8 (Homo sapiens, UniProt Q9NR97).
T1 construct: endogenous in cells; host or cells: primary human monocytes (CD14 microbeads) from buffy coats of healthy donors
T1 sequence (Q9NR97 27-1041): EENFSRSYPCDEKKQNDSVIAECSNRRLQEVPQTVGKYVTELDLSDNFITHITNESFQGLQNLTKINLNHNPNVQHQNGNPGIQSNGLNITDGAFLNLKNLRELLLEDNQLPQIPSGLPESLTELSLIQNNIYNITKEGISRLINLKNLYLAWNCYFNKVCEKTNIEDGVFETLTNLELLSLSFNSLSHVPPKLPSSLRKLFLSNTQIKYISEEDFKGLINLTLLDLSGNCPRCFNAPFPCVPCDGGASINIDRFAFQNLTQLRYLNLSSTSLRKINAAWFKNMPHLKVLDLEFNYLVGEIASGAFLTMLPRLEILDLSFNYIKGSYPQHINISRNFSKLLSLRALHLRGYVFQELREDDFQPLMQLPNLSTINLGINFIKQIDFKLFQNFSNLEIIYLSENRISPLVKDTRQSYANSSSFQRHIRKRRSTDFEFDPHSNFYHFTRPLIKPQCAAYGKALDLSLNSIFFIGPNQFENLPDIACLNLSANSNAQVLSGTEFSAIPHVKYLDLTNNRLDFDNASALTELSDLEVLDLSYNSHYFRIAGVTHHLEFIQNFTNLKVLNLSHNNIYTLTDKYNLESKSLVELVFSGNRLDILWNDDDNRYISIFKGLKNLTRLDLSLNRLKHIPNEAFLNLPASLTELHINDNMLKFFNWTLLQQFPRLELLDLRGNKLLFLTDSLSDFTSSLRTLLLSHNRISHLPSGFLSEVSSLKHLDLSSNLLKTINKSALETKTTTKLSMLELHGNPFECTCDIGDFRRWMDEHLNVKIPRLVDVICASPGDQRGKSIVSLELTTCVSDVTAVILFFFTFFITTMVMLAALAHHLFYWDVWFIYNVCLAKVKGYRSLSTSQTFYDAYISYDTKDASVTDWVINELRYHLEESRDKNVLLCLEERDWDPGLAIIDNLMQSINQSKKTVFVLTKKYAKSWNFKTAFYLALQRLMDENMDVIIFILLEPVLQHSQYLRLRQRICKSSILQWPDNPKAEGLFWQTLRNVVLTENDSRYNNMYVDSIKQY
The assay can be described thus: Inhibition of human TLR8 in human monocytes (TNF-alpha / IL-1 beta ELISA). Conditions: human monocytes, agonist ORN8L 100 μg/mL, 24 hours. The format is cell-based. The text has this: Example B2—Inhibition of Human TLR8 in Human Monocytes
When placed in cell culture, engagement of TLR8 with an agonist leads to expression and release of cytokines into the media.
Buffy coats from anonymized, healthy human donors. CD14 microbeads (Milteny Cat. No. 130-050-201). TLR8 agonist, (5′-M2UGCUGCUUGUG-/glycerol/-GUGUUCGUCGUM2-5′ with M2=C6-linker, ORN8L, RNA oligonucleotide (Chem Genes Corp.). Human TNF-alpha ELISA kit (Mabtech Cat. No. 3510-1H-20). Human interleukin (IL)-1 beta ELISA kit (Mabtech Cat. No. 3415-1H-20).
Following isolation of monocytes from buffy coats, human monocytes were plated into 96 well plates at approximately 200,000 cells per well. Test compounds were serially diluted and added to the plates. Immediately after adding test compounds, the TLR8 agonist (ORN8L, RNA oligonucleotide) was added to a final concentration of 100 μg/mL. Cells were incubated for 24 hours at 37° C. A portion of the media supernatant was analyzed for the presence of TNF-alpha and/or IL-1 beta using ELISA kits. The amount of TNF-alpha or IL-1 beta produced is a reflection of the amount of TLR8-dependent receptor activity. The IC50 values (the concentration at which 50% of the TLR8-dependent receptor activity is reduced) were calculated based upon the TLR8-dependent receptor activity over a range of different test compound concentrations.
For orientation: In an ELISA, binding on a coated surface is turned into a signal by an enzyme label.

Assay [2] addresses T2, human TLR9 (Homo sapiens, UniProt Q9NR96).
T2 construct: endogenous in cells; host or cells: primary human B cells (CD19 microbeads) from buffy coats of healthy donors
T2 sequence (Q9NR96 26-1032): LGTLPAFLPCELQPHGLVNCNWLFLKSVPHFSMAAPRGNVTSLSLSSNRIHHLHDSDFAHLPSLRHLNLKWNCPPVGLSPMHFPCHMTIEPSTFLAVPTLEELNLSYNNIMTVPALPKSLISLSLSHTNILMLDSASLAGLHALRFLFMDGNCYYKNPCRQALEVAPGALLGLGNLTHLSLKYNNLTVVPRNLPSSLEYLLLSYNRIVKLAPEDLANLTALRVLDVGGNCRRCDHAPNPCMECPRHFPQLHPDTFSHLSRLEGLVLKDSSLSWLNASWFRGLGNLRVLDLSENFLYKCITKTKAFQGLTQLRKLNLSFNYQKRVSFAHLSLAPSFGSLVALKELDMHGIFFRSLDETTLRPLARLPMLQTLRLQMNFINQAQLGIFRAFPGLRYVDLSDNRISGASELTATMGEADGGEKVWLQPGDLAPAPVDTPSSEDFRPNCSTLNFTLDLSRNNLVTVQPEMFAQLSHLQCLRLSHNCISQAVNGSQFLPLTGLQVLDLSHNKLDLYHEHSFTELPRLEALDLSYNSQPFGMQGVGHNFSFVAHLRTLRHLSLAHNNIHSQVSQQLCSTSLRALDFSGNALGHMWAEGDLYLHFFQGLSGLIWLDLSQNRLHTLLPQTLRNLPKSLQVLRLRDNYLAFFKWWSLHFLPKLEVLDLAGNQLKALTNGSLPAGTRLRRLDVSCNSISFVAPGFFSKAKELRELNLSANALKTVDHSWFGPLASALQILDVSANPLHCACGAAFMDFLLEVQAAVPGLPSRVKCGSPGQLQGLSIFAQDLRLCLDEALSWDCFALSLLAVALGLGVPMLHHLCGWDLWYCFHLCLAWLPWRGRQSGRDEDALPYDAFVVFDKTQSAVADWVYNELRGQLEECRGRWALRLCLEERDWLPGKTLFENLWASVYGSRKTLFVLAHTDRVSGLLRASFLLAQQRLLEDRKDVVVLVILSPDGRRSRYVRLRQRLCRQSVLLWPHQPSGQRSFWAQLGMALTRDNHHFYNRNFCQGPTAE
The assay can be described thus: Inhibition of human TLR9 in human B cells (IL-6 ELISA). Type of assay: cell-based. To be noted: for IC50: human B cells, agonist 1018 ISS 1 μM; for inhibits TLR9-dependent responses (in words): summary statement of the description. The method, then:
Example B3—Inhibition of Human TLR9 in Human B Cells
When placed in cell culture, engagement of TLR9 with an agonist leads to expression and release of cytokines into the media.
Buffy coats from anonymized, healthy human donors. CD19 microbeads (Miltenyi Cat. No. 130-050-301). TLR9 agonist, 1018 ISS, CpG-containing DNA oligonucleotide. Human interleukin (IL)-6 ELISA kit (Mabtech Cat. No. 3460-1H-20).
Following isolation of […] from buffy coats, human B cells were plated into 96 well plates at approximately 300,000 cells per well. Test compounds were serially diluted and added to the plates. Test compounds were typically assayed using a concentration range from about 0.01 μM to about 10 μM. Certain test compounds were further assayed in an expanded dilution series using a compound concentration range from about 0.001 μM to about 30 μM. Immediately after adding test compounds, the TLR9 agonist (1018 ISS, CpG-containing DNA oligonucleotide) was added to a final concentration of 1 μM. Cells were incubated for 48 hours at 37° C. A portion of the media supernatant was analyzed for the presence of IL-6 using ELISA kits. The amount of IL-6 produced is a reflection of the amount of TLR9-dependent receptor activity. The IC50 values (the concentration at which 50% of the TLR9-dependent receptor activity is reduced) were calculated based upon the TLR9-dependent receptor activity over a range of different test compound concentrations.

Where [3] appears, read: TNF-alpha readout, read-out: Human TLR8 IC50 TNF-a.
[4] abbreviates: IL-6 readout, 48 hours, range about 0.01 to 10 μM, read-out: Human TLR9 IC50.
Setting [5] is: IL-1 beta readout, read-out: Human TLR8 IC50 IL-1b.

Read-outs that look alike come from different tables or passages of the source. A value given as a limit tells only on which side of the number the result lay.

Turning to `Cc1ccc(-n2nc3c(N4CCC(C(=O)N5CCC(CN(C)Cc6ccccc6)C5)CC4)nnc(C)c3c2C)cc1` (centres unmarked) [compound 68, (3-((benzyl(methyl)amino)methyl)pyrrolidin-1-yl)(1-(3,4-dimethyl-2-(p-tolyl)-2H-pyrazolo[3,4-d]pyridazin-7-yl)piperidin-4-yl)methanone], the figures for the half-maximal inhibitory concentration (IC50) in assay [1] (setting [3]) and in assay [2] (setting [4]) were 1180 nM and 85 nM, respectively.
Taken in the same sequence, the figures for `Cc1ccc(-n2nc3c(N4CCC(C(=O)N5CCC(N6CCC6)CC5)CC4)nnc(C)c3c2C)cc1` [compound 65, (4-(azetidin-1-yl)piperidin-1-yl)(1-(3,4-dimethyl-2-(p-tolyl)-2H-pyrazolo[3,4-d]pyridazin-7-yl)piperidin-4-yl)methanone] were 1850 nM and 10 nM.
In the same order, the values of `Cc1ccc(-n2nc3c(Cl)nnc(N4CCC(C(=O)NCCCN(C)C)CC4)c3c2C)cc1` [compound 48, 1-(7-chloro-3-methyl-2-(p-tolyl)-2H-pyrazolo[3,4-d]pyridazin-4-yl)-N-(3-(dimethylamino)propyl)piperidine-4-carboxamide] are at least 20000 nM and 10800 nM.
As to `CCN(CC)CCCNC(=O)C1CCN(c2nnc(C)c3c(C)n(-c4ccc(OC)cc4)nc23)CC1` [9x, N-(3-(diethylamino)propyl)-1-(2-(4-methoxyphenyl)-3,4-dimethyl-2H-pyrazolo[3,4-d]pyridazin-7-yl)piperidine-4-carboxamide], the figures for the half-maximal inhibitory concentration (IC50) in assay [1] (setting [5]), in assay [1] (setting [3]) and in assay [2] (setting [4]) were over 10000 nM, over 10000 nM and 40 nM, respectively. In addition, the “inhibits TLR9-dependent responses (in words)” value in assay [2] was “inhibit”.
As to `Cc1ccc(-n2nc3c(N4CCC(C(=O)N5CCC(CN6CCOCC6)C5)CC4)nnc(C)c3c2C)cc1` (centres unmarked) [compound 70, (1-(3,4-dimethyl-2-(p-tolyl)-2H-pyrazolo[3,4-d]pyridazin-7-yl)piperidin-4-yl)(3-(morpholinomethyl)pyrrolidin-1 yl)methanone], the IC50 in assay [1] (setting [3]) is 5120 nM; in assay [2] (setting [4]) it was 150 nM.
As to `Cc1ccc(-n2nc3c(N4CCC(C(=O)NCCCN(C)C)C4)nnc(C)c3c2C)cc1` (centres unmarked) [compound 13, 1-(3,4-dimethyl-2-(p-tolyl)-2H-pyrazolo[3,4-d]pyridazin-7-yl)-N-(3-(dimethylamino)propyl)pyrrolidine-3-carboxamide], the IC50 was over 10000 nM in assay [1] (setting [5]), over 10000 nM in assay [1] (setting [3]) and 292 nM in assay [2] (setting [4]).
On to `CCN1CCCC1CNC(=O)C1CCN(c2nnc(C)c3c(C)n(-c4ccccc4)nc23)CC1` (centres unmarked) [33x, 1-(3,4-dimethyl-2-phenyl-2H-pyrazolo[3,4-d]pyridazin-7-yl)-N-((1-ethylpyrrolidin-2-yl)methyl)piperidine-4-carboxamide], for which the 50% inhibitory concentration (IC50) in assay [1] (setting [5]) is over 10000 nM; in assay [1] (setting [3]) it was over 10000 nM; in assay [2] (setting [4]), 70 nM.
Regarding `Cc1ccc(-n2nc3c(N4CCC(C(=O)NC5CCN(C)C5)CC4)nnc(C)c3c2C)cc1` (centres unmarked) [compound 17, 1-(3,4-dimethyl-2-(p-tolyl)-2H-pyrazolo[3,4-d]pyridazin-7-yl)-N-(1-methylpyrrolidin-3-yl)piperidine-4-carboxamide], the IC50 was over 10000 nM in assay [1] (setting [5]), over 10000 nM in assay [1] (setting [3]) and 83 nM in assay [2] (setting [4]).
Regarding `Cc1ccc(-n2nc3c(N4CCC(C(=O)N5CCC(CN(C)C)C5)CC4)nnc(C)c3c2C)cc1` (centres unmarked) [compound 45, (1-(3,4-dimethyl-2-(p-tolyl)-2H-pyrazolo[3,4-d]pyridazin-7-yl)piperidin-4-yl)(3-((dimethylamino)methyl)pyrrolidin-1-yl)methanone], the IC50 is at least 20000 nM in assay [1] (setting [3]); 14 nM in assay [2] (IL-6, 48 hours, expanded dilution series about 0.001 to 30 μM, read-out: Human TLR9 IC50, expanded dilution series); 1 nM in assay [2] (setting [4]). In addition, the “inhibits TLR9-dependent responses (in words)” value in assay [2] is “inhibit”.
On to `Cc1ccc(-n2nc3c(N4CCC(C(=O)N5CC6CNCC6C5)CC4)nnc(C)c3c2C)cc1` (centres unmarked) [compound 71, (1-(3,4-dimethyl-2-(p-tolyl)-2H-pyrazolo[3,4-d]pyridazin-7-yl)piperidin-4-yl) (hexahydropyrrolo[3,4-c]pyrrol-2(1H)-yl)methanone], for which the IC50 in assay [1] (setting [3]) was at least 20000 nM; in assay [2] (setting [4]), 588 nM.
Taken in the same sequence, the figures for `Cc1ccc(-n2nc3c(N4CCC(CCC(=O)NC5CN(C)C5)CC4)nnc(C)c3c2C)cc1` [compound 66, 3-(1-(3,4-dimethyl-2-(p-tolyl)-2H-pyrazolo[3,4-d]pyridazin-7-yl)piperidin-4-yl)-N-(1-methylazetidin-3-yl)propanamide] were at least 20000 nM and 182 nM.
